US9255295B2, “Method for evaluating the sensitizing potential of a test compound” (IMMUNOSEARCH, priority 2010, dated 2016)
Several values for one entry are separate records, joined by “and”; a condition that tells them apart may be missing. Identical values can stand only once. Like-named read-outs stand apart in the source and are kept apart here.

Tests used:
[1] = tested on: genes specific for sensitization (BRAK, CTSS, DAPK2, FABP4, HSP27, IL18, HSP90, IL1R2, TPSAB1, CXCR1, DEFB1, DHFR, EHF, IVL, KRT4, MELANA, NGAL, PDZK1IP1, PI3 …); test: Expression of the other (non-ARE) sensitization-specific genes in EPISKIN reconstructed skin (quantitative RT-PCR); format: cell-based, human
[2] = tested on: ARE gene family (AKR1B10, AKR1C1, AKR1C2, CYP1B1, FTH1P, FTL, G6PD, GCLM, NQO2, SLC7A11, TXNRD1, UGT1A1, UGT1A9, YWHAZ, CD36, CYP1A1, GCLC, HMOX1, NQO1, PSME2 …)

SMILES: Nc1ccccc1O [2-aminophenol]
- BRAK grade (NUMBER OF GENES) [1]: 0 (key: If the expression is greater than 1.3 compared to the control, a grade of 11s given; if this expression is lower, the grade is 0)
- CTSS expression compared to control [1]: 1.3 and 1.2 and 1.4
- DAPK2 expression compared to control [1]: 1.0 and 0.9
- DAPK2 grade (NUMBER OF GENES) [1]: 0 (key: If the expression is greater than 1.3 compared to the control, a grade of 11s given; if this expression is lower, the grade is 0)
- DEFB1 expression compared to control [1]: 1.9 and 1.8 and 1.4 and 1.1
- DHFR expression compared to control [1]: 0.9 and 1.2
- DHFR grade (NUMBER OF GENES) [1]: 0 (key: If the expression is greater than 1.3 compared to the control, a grade of 11s given; if this expression is lower, the grade is 0)
- EHF expression compared to control [1]: 1.7 and 1.5 and 1.4 and 1.2
- FABP4 expression compared to control [1]: 1.1 and 0.7 and 0.9
- FABP4 grade (NUMBER OF GENES) [1]: 0 (key: If the expression is greater than 1.3 compared to the control, a grade of 11s given; if this expression is lower, the grade is 0)
- HSP27 expression compared to control [1]: 1.0 and 1.1 and 0.8
- HSP27 grade (NUMBER OF GENES) [1]: 0 (key: If the expression is greater than 1.3 compared to the control, a grade of 11s given; if this expression is lower, the grade is 0)
- HSP90 expression compared to control [1]: 1.5 and 1.2 and 1.0
- IL18 expression compared to control [1]: 0.9 and 0.8 and 1.1
- IL18 grade (NUMBER OF GENES) [1]: 0 (key: If the expression is greater than 1.3 compared to the control, a grade of 11s given; if this expression is lower, the grade is 0)
- IVL expression compared to control [1]: 1.8 and 1.3 and 0.9
- KRT4 expression compared to control [1]: 1.7 and 1.1
- MELANA grade (NUMBER OF GENES) [1]: 0 (key: If the expression is greater than 1.3 compared to the control, a grade of 11s given; if this expression is lower, the grade is 0)
- NGAL expression compared to control [1]: 1.8 and 1.9 and 1.5 and 1.1
- P13 expression compared to control [1]: 1.5 and 1.4 and 1.2 and 1.3
- PDZK1iP1 expression compared to control [1]: 1.0
- PDZK1iP1 grade (NUMBER OF GENES) [1]: 0 (key: If the expression is greater than 1.3 compared to the control, a grade of 11s given; if this expression is lower, the grade is 0)
- SERPINB3 expression compared to control [1]: 1.4 and 1.2 and 1.3
- AHR expression compared to control ([2]; 0.1%): 1.0
- AHR grade (NUMBER OF GENES) ([2]; 0.1%): 0 (if this expression is lower, the grade is 0)
- AKR1B10 expression compared to control ([2]; 0.1%): 0.8
- AKR1B10 grade (NUMBER OF GENES) ([2]; 0.1%): 0 (if this expression is lower, the grade is 0)
- AKR1C1 expression compared to control ([2]; 0.1%): 1.2
- AKR1C1 grade (NUMBER OF GENES) ([2]; 0.1%): 0 (if this expression is lower, the grade is 0)
- AKR1C2 expression compared to control ([2]; 0.1%): 1.1
- AKR1C2 grade (NUMBER OF GENES) ([2]; 0.1%): 0 (if this expression is lower, the grade is 0)
- ARE >1.3 (NUMBER OF GENES) ([2]; 0.1%): 5
- CD36 expression compared to control ([2]; 0.1%): 0.9
- CD36 grade (NUMBER OF GENES) ([2]; 0.1%): 0 (if this expression is lower, the grade is 0)
- CYP1A1 expression compared to control ([2]; 0.1%): 7.1
- CYP1A1 grade (NUMBER OF GENES) ([2]; 0.1%): 1 (If the expression is greater than 1.3 compared to the control, a grade of 11s given)
- CYP1B1 expression compared to control ([2]; 0.1%): 5.3
- CYP1B1 grade (NUMBER OF GENES) ([2]; 0.1%): 1 (If the expression is greater than 1.3 compared to the control, a grade of 11s given)
- FTH1P expression compared to control ([2]; 0.1%): 0.9
- FTH1P grade (NUMBER OF GENES) ([2]; 0.1%): 0 (if this expression is lower, the grade is 0)
- FTL expression compared to control ([2]; 0.1%): 1.0
- FTL grade (NUMBER OF GENES) ([2]; 0.1%): 0 (if this expression is lower, the grade is 0)
- GCLC expression compared to control ([2]; 0.1%): 1.1
- GCLC grade (NUMBER OF GENES) ([2]; 0.1%): 0 (if this expression is lower, the grade is 0)
- GCLM expression compared to control ([2]; 0.1%): 2.1
- GCLM grade (NUMBER OF GENES) ([2]; 0.1%): 1 (If the expression is greater than 1.3 compared to the control, a grade of 11s given)
- HMOX1 expression compared to control ([2]; 0.1%): 1.1
- HMOX1 grade (NUMBER OF GENES) ([2]; 0.1%): 0 (if this expression is lower, the grade is 0)
- NQO1 expression compared to control ([2]; 0.1%): 0.9
- NQO1 grade (NUMBER OF GENES) ([2]; 0.1%): 0 (if this expression is lower, the grade is 0)
- NQO2 expression compared to control ([2]; 0.1%): 1.0
- NQO2 grade (NUMBER OF GENES) ([2]; 0.1%): 0 (if this expression is lower, the grade is 0)
- S100A8 expression compared to control ([2]; 0.1%): 1.4
- S100A8 grade (NUMBER OF GENES) ([2]; 0.1%): 1 (If the expression is greater than 1.3 compared to the control, a grade of 11s given)
- SLC7A11 expression compared to control ([2]; 0.1%): 2.1
- SLC7A11 grade (NUMBER OF GENES) ([2]; 0.1%): 1 (If the expression is greater than 1.3 compared to the control, a grade of 11s given)
- TOTAL ARE (NUMBER OF GENES) ([2]; 0.1%): 5
- TXNRD1 expression compared to control ([2]; 0.1%): 3.0
- TXNRD1 grade (NUMBER OF GENES) ([2]; 0.1%): 1 (If the expression is greater than 1.3 compared to the control, a grade of 11s given)
- UGT1A1 expression compared to control ([2]; 0.1%): 0.9
- UGT1A1 grade (NUMBER OF GENES) ([2]; 0.1%): 0 (if this expression is lower, the grade is 0)
- UGT1A9 expression compared to control ([2]; 0.1%): 1.1
- UGT1A9 grade (NUMBER OF GENES) ([2]; 0.1%): 0 (if this expression is lower, the grade is 0)
- AHR expression compared to control ([2]; 1%): 0.6
- AHR grade (NUMBER OF GENES) ([2]; 1%): 0 (if this expression is lower, the grade is 0)
- AKR1B10 expression compared to control ([2]; 1%): 0.9
- AKR1B10 grade (NUMBER OF GENES) ([2]; 1%): 0 (if this expression is lower, the grade is 0)
- AKR1C1 expression compared to control ([2]; 1%): 4.3
- AKR1C1 grade (NUMBER OF GENES) ([2]; 1%): 1 (If the expression is greater than 1.3 compared to the control, a grade of 11s given)
- AKR1C2 expression compared to control ([2]; 1%): 1.2
- AKR1C2 grade (NUMBER OF GENES) ([2]; 1%): 0 (if this expression is lower, the grade is 0)
- ARE >1.3 (NUMBER OF GENES) ([2]; 1%): 10
- CD36 expression compared to control ([2]; 1%): 0.6
- CD36 grade (NUMBER OF GENES) ([2]; 1%): 0 (if this expression is lower, the grade is 0)
- CYP1A1 expression compared to control ([2]; 1%): 14.6
- CYP1A1 grade (NUMBER OF GENES) ([2]; 1%): 1 (If the expression is greater than 1.3 compared to the control, a grade of 11s given)
- CYP1B1 expression compared to control ([2]; 1%): 15.6
- CYP1B1 grade (NUMBER OF GENES) ([2]; 1%): 1 (If the expression is greater than 1.3 compared to the control, a grade of 11s given)
- FTH1P expression compared to control ([2]; 1%): 1.2
- FTH1P grade (NUMBER OF GENES) ([2]; 1%): 0 (if this expression is lower, the grade is 0)
- FTL expression compared to control ([2]; 1%): 2.1
- FTL grade (NUMBER OF GENES) ([2]; 1%): 1 (If the expression is greater than 1.3 compared to the control, a grade of 11s given)
- GCLC expression compared to control ([2]; 1%): 2.2
- GCLC grade (NUMBER OF GENES) ([2]; 1%): 1 (If the expression is greater than 1.3 compared to the control, a grade of 11s given)
- GCLM expression compared to control ([2]; 1%): 3.5
- GCLM grade (NUMBER OF GENES) ([2]; 1%): 1 (If the expression is greater than 1.3 compared to the control, a grade of 11s given)
- HMOX1 expression compared to control ([2]; 1%): 1.4
- HMOX1 grade (NUMBER OF GENES) ([2]; 1%): 1 (If the expression is greater than 1.3 compared to the control, a grade of 11s given)
- NQO1 expression compared to control ([2]; 1%): 1.1
- NQO1 grade (NUMBER OF GENES) ([2]; 1%): 0 (if this expression is lower, the grade is 0)
- NQO2 expression compared to control ([2]; 1%): 1.1
- NQO2 grade (NUMBER OF GENES) ([2]; 1%): 0 (if this expression is lower, the grade is 0)
